Data reported in ChEMBL document CHEMBL3098111, “Discovery of 2,5-diarylnicotinamides as selective orexin-2 receptor antagonists (2-SORAs)” (Bioorg Med Chem Lett, 2013).

What was measured:
D(3) dopamine receptor = D(3) dopamine receptor (Homo sapiens, UniProt P35462); experiment: Inhibition of human dopamine D3 receptor at 1 uM relative to control
Rattus norvegicus [1] = organism: Rattus norvegicus; experiment: Inhibition of rat 5-HT2 receptor at 10 uM relative to control
[2] = target: Type-2 angiotensin II receptor (Homo sapiens) (UniProt P50052); experiment: Inhibition of human angiotensin AT2 receptor at 10 uM relative to control
[3] = target: 5-hydroxytryptamine receptor 2B (Homo sapiens, UniProt P41595); experiment: Inhibition of human 5-HT2B receptor at 10 nM relative to control
Chain of 5-hydroxytryptamine receptor 2B (P41595 whole entry): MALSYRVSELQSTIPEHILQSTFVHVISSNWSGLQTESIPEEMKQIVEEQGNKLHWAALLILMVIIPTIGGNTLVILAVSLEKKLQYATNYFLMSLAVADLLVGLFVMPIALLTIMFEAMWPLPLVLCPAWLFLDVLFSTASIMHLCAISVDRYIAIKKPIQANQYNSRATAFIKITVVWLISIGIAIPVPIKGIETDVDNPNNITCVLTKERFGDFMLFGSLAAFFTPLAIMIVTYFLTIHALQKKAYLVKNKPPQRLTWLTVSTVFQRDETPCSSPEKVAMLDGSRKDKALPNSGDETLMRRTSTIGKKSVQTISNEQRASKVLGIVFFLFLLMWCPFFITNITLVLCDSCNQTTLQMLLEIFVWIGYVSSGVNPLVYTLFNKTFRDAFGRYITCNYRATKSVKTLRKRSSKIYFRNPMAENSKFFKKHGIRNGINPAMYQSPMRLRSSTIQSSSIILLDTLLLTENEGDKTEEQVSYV

[4] = target: Vasopressin V1a receptor (Homo sapiens) (UniProt P37288); experiment: Inhibition of human V1A receptor at 10 uM relative to control
[5] = target: Insulin receptor (Rattus norvegicus) (UniProt P15127); experiment: Inhibition of rat insulin receptor at 10 uM relative to control
Chain of Insulin receptor (Rattus norvegicus) (P15127 27-759 limits assumed): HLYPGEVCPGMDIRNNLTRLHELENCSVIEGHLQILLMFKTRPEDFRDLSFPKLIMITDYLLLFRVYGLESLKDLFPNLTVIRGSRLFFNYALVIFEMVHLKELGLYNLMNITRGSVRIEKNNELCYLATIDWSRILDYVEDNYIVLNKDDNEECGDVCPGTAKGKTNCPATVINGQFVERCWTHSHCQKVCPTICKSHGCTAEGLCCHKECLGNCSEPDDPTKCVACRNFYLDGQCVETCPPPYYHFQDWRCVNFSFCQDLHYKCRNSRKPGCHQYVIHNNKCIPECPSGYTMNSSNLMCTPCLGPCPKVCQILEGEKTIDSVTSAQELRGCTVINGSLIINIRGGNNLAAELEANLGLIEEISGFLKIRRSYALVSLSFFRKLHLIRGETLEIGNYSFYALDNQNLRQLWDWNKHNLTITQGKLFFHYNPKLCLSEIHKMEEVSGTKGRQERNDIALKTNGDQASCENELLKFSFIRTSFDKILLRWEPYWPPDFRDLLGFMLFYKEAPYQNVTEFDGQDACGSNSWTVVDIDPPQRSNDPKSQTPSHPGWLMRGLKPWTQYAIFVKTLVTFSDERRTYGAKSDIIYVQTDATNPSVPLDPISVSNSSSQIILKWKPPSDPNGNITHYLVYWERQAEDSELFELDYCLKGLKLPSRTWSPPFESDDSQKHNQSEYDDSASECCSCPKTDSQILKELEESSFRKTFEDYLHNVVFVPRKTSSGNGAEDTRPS
Chain of Insulin receptor (Rattus norvegicus) (P15127 764-1383 limits assumed): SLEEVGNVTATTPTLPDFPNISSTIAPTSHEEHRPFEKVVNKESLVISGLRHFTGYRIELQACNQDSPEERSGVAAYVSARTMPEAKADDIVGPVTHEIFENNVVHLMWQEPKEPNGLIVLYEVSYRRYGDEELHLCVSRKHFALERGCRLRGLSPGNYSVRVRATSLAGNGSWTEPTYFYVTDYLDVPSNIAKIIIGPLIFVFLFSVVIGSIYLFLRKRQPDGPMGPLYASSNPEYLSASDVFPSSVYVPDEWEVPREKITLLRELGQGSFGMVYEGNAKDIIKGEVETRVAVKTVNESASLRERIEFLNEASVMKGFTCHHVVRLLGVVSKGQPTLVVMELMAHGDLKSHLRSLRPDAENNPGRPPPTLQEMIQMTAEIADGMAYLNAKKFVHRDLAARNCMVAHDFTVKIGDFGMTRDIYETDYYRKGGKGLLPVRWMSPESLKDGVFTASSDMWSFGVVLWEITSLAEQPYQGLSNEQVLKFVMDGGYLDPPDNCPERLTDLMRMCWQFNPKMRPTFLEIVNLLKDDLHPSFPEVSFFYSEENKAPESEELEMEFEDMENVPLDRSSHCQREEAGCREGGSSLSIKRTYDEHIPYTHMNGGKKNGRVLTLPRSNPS

[6] = target: Vasopressin V2 receptor (Homo sapiens) (UniProt P30518); experiment: Inhibition of human V2 receptor at 10 uM relative to control
[7] = target: D(2) dopamine receptor (Homo sapiens) (UniProt P14416); experiment: Inhibition of human dopamine D2S receptor at 10 uM relative to control
Rattus norvegicus [8] = organism: Rattus norvegicus; experiment: Inhibition of rat glutamate receptor at 10 uM relative to control
[9] = target: Muscarinic acetylcholine receptor M2 (Homo sapiens) (UniProt P08172); experiment: Inhibition of human muscarinic M2 receptor at 10 uM relative to control
Chain of Muscarinic acetylcholine receptor M2 (Homo sapiens) (P08172 whole entry): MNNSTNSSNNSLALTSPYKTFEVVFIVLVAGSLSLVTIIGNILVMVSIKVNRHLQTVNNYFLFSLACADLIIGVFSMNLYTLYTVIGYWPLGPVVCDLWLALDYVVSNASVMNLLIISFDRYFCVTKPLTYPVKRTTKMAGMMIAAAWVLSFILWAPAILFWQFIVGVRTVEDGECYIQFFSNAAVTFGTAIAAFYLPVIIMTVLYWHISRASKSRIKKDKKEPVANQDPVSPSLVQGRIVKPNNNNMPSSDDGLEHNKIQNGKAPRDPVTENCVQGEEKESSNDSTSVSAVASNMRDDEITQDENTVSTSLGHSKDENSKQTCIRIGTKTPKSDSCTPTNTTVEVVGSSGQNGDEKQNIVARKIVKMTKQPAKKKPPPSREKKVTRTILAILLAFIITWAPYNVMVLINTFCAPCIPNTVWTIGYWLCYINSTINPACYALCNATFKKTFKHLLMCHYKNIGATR

[10] = target: Nitric oxide synthase, inducible (Mus musculus) (UniProt P29477); experiment: Inhibition of mouse iNOS at 10 uM relative to control
Chain of Nitric oxide synthase, inducible (Mus musculus) (P29477 whole entry): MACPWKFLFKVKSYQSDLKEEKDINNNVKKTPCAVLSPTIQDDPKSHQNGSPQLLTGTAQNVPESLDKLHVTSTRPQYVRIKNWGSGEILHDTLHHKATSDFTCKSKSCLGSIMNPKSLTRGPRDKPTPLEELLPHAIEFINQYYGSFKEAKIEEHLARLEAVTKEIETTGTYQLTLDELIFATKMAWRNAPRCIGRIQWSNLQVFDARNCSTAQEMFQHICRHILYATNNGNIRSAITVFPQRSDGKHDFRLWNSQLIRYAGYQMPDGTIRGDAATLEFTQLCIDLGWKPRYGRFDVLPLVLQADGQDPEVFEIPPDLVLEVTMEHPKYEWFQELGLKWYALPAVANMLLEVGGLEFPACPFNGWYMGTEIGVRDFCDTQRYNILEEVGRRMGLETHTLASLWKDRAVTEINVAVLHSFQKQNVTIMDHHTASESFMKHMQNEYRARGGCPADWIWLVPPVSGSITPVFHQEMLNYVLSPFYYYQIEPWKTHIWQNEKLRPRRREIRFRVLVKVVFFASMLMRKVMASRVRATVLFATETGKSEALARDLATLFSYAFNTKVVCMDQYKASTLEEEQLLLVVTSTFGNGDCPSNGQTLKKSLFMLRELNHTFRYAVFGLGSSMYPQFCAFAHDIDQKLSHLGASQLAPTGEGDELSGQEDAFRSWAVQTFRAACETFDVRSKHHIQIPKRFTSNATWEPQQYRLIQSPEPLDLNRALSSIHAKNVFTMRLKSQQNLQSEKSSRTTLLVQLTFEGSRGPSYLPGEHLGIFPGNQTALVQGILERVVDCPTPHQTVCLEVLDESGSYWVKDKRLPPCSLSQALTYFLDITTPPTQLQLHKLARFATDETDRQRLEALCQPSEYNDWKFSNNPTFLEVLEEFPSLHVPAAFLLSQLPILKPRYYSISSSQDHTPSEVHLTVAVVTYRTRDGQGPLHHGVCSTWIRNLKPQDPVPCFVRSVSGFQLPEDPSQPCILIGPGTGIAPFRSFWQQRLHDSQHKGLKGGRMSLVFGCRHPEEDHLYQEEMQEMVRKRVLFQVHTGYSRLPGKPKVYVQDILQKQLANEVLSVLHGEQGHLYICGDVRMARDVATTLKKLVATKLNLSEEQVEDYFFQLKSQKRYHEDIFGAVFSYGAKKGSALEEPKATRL

[11] = target: Neutrophil elastase (Homo sapiens) (UniProt P08246); experiment: Inhibition of human neutrophil elastase 2 at 30 uM relative to control
Chain of Neutrophil elastase (Homo sapiens) (P08246 whole entry): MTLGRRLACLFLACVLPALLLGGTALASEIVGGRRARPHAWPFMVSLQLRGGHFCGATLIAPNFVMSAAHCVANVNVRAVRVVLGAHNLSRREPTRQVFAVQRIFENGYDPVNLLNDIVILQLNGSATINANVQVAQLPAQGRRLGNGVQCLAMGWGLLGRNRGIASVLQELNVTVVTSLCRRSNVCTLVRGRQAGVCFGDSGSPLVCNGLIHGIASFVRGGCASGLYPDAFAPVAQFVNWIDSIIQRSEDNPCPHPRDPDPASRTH

[12] = target: Neurotensin receptor type 1 (Homo sapiens) (UniProt P30989); experiment: Inhibition of human NT1 receptor at 10 uM relative to control
Chain of Neurotensin receptor type 1 (Homo sapiens) (P30989 whole entry): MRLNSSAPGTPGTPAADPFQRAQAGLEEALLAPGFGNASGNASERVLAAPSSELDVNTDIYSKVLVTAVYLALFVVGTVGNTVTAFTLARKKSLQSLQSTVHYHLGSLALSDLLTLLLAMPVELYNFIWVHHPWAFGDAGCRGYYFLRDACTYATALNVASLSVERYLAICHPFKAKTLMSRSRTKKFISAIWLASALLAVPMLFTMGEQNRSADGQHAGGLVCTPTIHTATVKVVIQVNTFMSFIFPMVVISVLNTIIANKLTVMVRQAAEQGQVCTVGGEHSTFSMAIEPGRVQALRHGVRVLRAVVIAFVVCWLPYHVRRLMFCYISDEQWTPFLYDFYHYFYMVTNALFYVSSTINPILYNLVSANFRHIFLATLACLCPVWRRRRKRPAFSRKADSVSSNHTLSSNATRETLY

[13] = target: Histamine H1 receptor (Homo sapiens) (UniProt P35367); experiment: Inhibition of human histamine H1 receptor at 10 uM relative to control
Chain of Histamine H1 receptor (Homo sapiens) (P35367 whole entry): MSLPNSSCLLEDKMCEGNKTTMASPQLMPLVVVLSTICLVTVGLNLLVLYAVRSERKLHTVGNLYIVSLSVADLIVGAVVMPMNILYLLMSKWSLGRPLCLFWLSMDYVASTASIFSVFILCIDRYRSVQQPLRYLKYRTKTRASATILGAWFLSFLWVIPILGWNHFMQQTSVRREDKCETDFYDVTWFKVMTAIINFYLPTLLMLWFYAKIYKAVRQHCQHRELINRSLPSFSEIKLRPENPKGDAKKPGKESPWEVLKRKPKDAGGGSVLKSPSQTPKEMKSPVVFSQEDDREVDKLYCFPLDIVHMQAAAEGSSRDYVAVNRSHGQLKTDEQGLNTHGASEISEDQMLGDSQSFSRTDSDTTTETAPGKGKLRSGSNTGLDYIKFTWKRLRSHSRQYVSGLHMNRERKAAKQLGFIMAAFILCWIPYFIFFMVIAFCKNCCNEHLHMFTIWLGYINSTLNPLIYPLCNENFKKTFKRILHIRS

Chain of D(3) dopamine receptor (P35462 whole entry): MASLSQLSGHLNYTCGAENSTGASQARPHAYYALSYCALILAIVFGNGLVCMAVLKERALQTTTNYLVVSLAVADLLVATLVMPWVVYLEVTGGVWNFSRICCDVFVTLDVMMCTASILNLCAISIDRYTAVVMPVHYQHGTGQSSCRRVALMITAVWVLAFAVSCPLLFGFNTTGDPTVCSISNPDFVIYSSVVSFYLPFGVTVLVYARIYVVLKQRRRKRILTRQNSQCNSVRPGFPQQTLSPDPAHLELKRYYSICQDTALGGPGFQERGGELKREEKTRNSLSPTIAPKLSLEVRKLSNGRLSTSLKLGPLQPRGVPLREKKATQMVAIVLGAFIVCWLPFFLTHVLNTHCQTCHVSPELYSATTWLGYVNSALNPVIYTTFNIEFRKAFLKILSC

With `COc1ccc(CNC(=O)c2cc(-c3cc(Cl)cc(Cl)c3)cnc2-c2cccnc2)cc1OC` the inhibition (D(3) dopamine receptor) was 19%, the inhibition (Rattus norvegicus [1]) was 17% and the inhibition [2] was 18%. For the same compound, the inhibition [3] was 6%, the inhibition [4] was 0% and the inhibition [5] was -5%. For the same compound, the inhibition [6] was 0%, the inhibition [7] was -2% and the inhibition (Rattus norvegicus [8]) was -6%. It also gave an inhibition [9] of -8%, an inhibition [10] of 2% and an inhibition [11] of -2%. For the same compound, the inhibition [12] was 21% and the inhibition [13] was 10%.
